The source of these data is patent US20230295571A1, “COMPOSITIONS AND METHODS FOR STEM CELL CHONDROGENESIS” (Washington University, priority 2020, published 2023).

For assay [1], the system named is CD146/CD166+ cells at the Cp stage. Briefly: FACS for progenitors at the Cp stage. Particulars: with BMP4, 1 μM WNT-C59 or 100 ng/ml WNT3A. It counts as cell-based, human. As to the method:
WNT ligands treatment during chondrogenesis. For WNT ligands treatment during chondrogenesis, pellets were treated with either 10 ng ml^−1 TGF-β3 (control group) or a combination of 10 ng ml^−1 TGF-β3 and 100 ng ml^−1 individual WNT ligand (WNT2B, WNT3A, WNT4, WNT5B, or WNT7B, all from R&D system) in chondrogenic medium from d0 to d42 as appropriate. For WNT ligands treatment during the Cp stage, cells were supplemented with either 20 ng ml^−1 BMP4 (R&D Systems, #314-BP-010) alone (control group), a combination of 20 ng ml^−1 BMP4 and 1 μM WNT-059, or a combination of 20 ng ml^−1 BMP4 and 100 ng ml^−1 WNT3A (R&D Systems, #5036-WN-010) in mesodermal differentiation medium from d7 to d12.
FACS for progenitors. […] Data were analyzed using FlowJo software (version 10.5.3).

For assay [2], the system named is hiPSC chondrogenic pellets. The assay can be described thus: scRNA-seq of hiPSC chondrogenic pellets with WNT inhibition. Format: cell-based, human. As to the method:
On the day of collection for bulk RNA-seq experiments, 3-4 pellets per experimental group were pooled together and washed once with phosphate-buffered saline (PBS), snap-frozen in 300 μl of Buffer RL (Norgen Biotek), and stored at −80° C. until processing for RNA extraction. At harvesting time points for scRNA-seq experiments, 6-8 pellets per experimental group were pooled and digested with 0.04% Type II collagenase solution in DMEM/F12 for 1 h. Cells were washed once with PBS, resuspended in standard freezing medium, and stored in liquid nitrogen until needed.
WNT-C59 and ML329 treatment for WNT and MITF inhibition. For WNT-C59 treatment for WNT inhibition during chondrogenesis, pellets were treated with either 10 ng ml^−1 TGF-β3 (control group) or a combination of 10 ng ml^−1 TGF-β3 and 1 μM WNT-C59 in a chondrogenic medium from d0 to d42 as appropriate. For WNT-C59 and ML329 treatment (ML, Axon Medchem, HY-101464) for WNT and MITF inhibition during chondrogenesis, pellets were treated with either 10 ng ml^−1 TGF-β3 (control group), a combination of 10 ng ml^−1 TGF-β3 and 1 μM ML, a combination of 10 ng ml^−1 TGF-β3 and 1 μM WNT-C59, or a combination of 10 ng ml^−1 TGF-β3, 1 μM ML and 1 μM WNT-C59 in chondrogenic medium from d0 to d42 as appropriate.
10× chromium platform scRNA-seq. Cells were thawed at 37° C. and resuspended in PBS with 0.04% bovine serum albumin at a concentration of 2000 cells per μl. Cell suspensions were submitted to the GTAC sequencing core at Washington University in St. Louis for library preparation and sequencing. In brief, 10,000 cells per sample were loaded on a Chromium Controller (10× Genomics) for single capture. Libraries were prepared using Single Cell 3′ Library & Gel Bead Kit v2 (#120237 10× Genomics) following the manufacture's instruction. A single cell emulsion (Gel Bead-In-EMulsions, GEMs) is created by making barcoded cDNA unique to each individual emulsion. A recovery agent was added to break GEM and cDNA was then amplified. A library is produced via end repair, dA-tailing, adapter ligation, post-ligation cleanup with SPRIselect, and sample index PCR. The quality and concentration of the amplified cDNA were evaluated by Bioanalyzer (Agilent 2100) on a High Sensitivity DNA chip (Agilent, #5065-4401). The only cDNA with an average library size of 260-620 bp were used for sequencing. Sequencing was performed by IIlumina HiSeq2500 with the following read length: 26 bp for Read1, 8 bp for i7 Index, and 98 bp for Read2. We generally acquired ˜180 million reads per library (sample). A species mixing experiment (mouse adipose stem cells and human iPSCs, 1:1 mixture) was also performed prior to running on the actual sample to ensure good quality of single-cell capture (i.e., cell doublet rate<5%).
Preprocessing of scRNA-seq data. Paired-end sequencing reads were processed by Cell Ranger (10× Genomics software, version 2.0.0). Reads were aligned to the GRCh38 (version 90) for genome annotation, demultiplexing, barcode filtering, and gene quantification. Cell Ranger also removes any barcode that has less than 10% of the 99th percentile of total unique molecular identifiers (UMI) counts per barcode as these barcodes are considered to be associated with empty droplets. After this quality control, gene barcode matrices for each sample were generated by counting the number of UMIs for a given gene (as a row) in the individual cell (as a column). For each sample, ˜1300-2500 cells were captured.
Unsupervised clustering analysis and annotation. To assess the difference in the composition of cell populations, global unsupervised clustering analysis was performed for our scRNA-seq datasets. First, gene barcode matrices were input into the Seurat R package (version 2.4). Then, the low-quality cells with less than 200 or more than 7000 detected genes or if their mitochondrial gene content was more than 5% were removed. […]

[3] abbreviates: trajectory vs TGF-β3-treated pellets.

For `Cc1cc(-c2ccc(CC(=O)Nc3ccc(-c4cccnc4)cc3)cc2)ccn1` [WNT-C59], the “percentage of CD146/CD166+ cells” value in assay [1] is “largely decreased”. Further, the “neural cells and melanocytes in pellets” value in assay [2] (WNT-C59-treated pellets d7-d42) is “significantly decreased”. The “percentage of BMP4-expressing cells” value in assay [2] (d14, all clusters except ISG15/IFI6/MX1+ chondrocytes) was “decreased percentage”. The “percentage of GDF5 and BMPR1B expressing cells” value in assay [2] (d14, all clusters vs TGF-β3-treated) was “remarkably increased percentage”. Further, in assay [2] (d14, several chondrocyte subpopulations), the “percentage of cells expressing BMPR2” value was “decreased”. For the same compound, the “expression of most WNTs” value in assay [2] (d14 and d28 pellets, particularly proliferative cells) is recorded as “decreased expression”. In assay [2] (d14 pellets), the “FRZB expression in chondrocyte population” value is “upregulated”, the “ID2 (neurogenic marker) in proliferative cells” value was “decreased” and the “PRG4 in mesenchymal cells” value is reported as “increased”. The “mesenchyme and chondrocytes content” value in assay [2] (d14 pellets vs TGF-β3 only) is “more”. Moreover, in assay [2] (d28 pellets), the “IFI6 and ISG15 (mature-hypertrophic chondrocyte markers)” value is “downregulated”. For the same compound, the “expression of ACAN and COMP” value in assay [2] (d28 pellets vs standard-treated) is “increased”. In assay [2] (setting [3]), the chondrogenic markers result is “enriched expression” and the neurogenic markers result is recorded as “little, if any”. Further, in assay [2] (vs TGF-β3 alone), the “ACAN expression in pseudotime” value is “earlier induction”; the “COL2A1 and SOX9 expression in pseudotime” value is reported as “higher levels”; the “SOX2 expression in pseudotime” value is reported as “earlier decrease”.
